Patent publication US8741836B2, “Polypeptides” (Novo Nordisk A/S, priority 2011, dated 2014)
Starred links: 1 amine or outer side, 2 acyl side, 3 side chain; linkers in the order of their positions; H or OH if unused. Positions of bridges follow the written chain, without caps; N, C: chain ends. Residues, ends and D or L forms follow the SMILES beside them. *: point of attachment. C20 diacid = O=C(O)CCCCCCCCCCCCCCCCCCC(=O)*; γGlu = O=C(O)[C@H](CCC(=O)[*:2])N[*:1]

Test: Assay (III) ThT fibrillation assay for physical stability
Assay type: physicochemical
Conditions: for ThT pH 4.0 lag time: pH 4.0, ThT fibrillation assay
Method in brief: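 Freshly prepared, pH-adjusted formulations with 1 μM ThT incubated at 37 °C under 960 rpm orbital shaking (1 mm), fluorescence (ex 444, em 485 nm) read every 20 min. […] Peptide content before and after measured by reverse-phase HPLC against pramlintide standard.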

Structure (SMILES) | ThT pH 4.0 lag time (physical stability in fibrillogenesis assay) (pH 4.0) [h] | ThT pH 4.0 lag time [h]
CC[C@H](C)[C@H](NC(=O)[C@@H]1CCCN1C(=O)CNC(=O)[C@H](Cc1ccccc1)NC(=O)[C@H](CC(N)=O)NC(=O)[C@H](CCC(N)=O)NC(=O)[C@H](CO)NC(=O)[C@H](CO)NC(=O)[C@H](Cc1c[nH]cn1)NC(=O)[C@H](CCCNC(=N)N)NC(=O)[C@H](CC(C)C)NC(=O)[C@H](Cc1ccccc1)NC(=O)[C@H](CCC(=O)O)NC(=O)[C@H](C)NC(=O)[C@H](CC(C)C)NC(=O)[C@H](CCCNC(=N)N)NC(=O)[C@H](CCC(N)=O)NC(=O)[C@@H](NC(=O)[C@H](C)NC(=O)[C@@H]1CSSC[C@H](NC(=O)[C@H](CCC(=O)O)NC(=O)[C@H](CCCNC(=N)N)NC(=O)[C@H](CCC(=O)O)NC(=O)CC[C@H](NC(=O)CCCCCCCCCCCCCCCCCCC(=O)O)C(=O)O)C(=O)N[C@@H](CC(N)=O)C(=O)N[C@@H]([C@@H](C)O)C(=O)N[C@@H](C)C(=O)N[C@@H]([C@@H](C)O)C(=O)N1)[C@@H](C)O)C(=O)N[C@@H](CC(C)C)C(=O)N1CCC[C@H]1C(=O)N1CCC[C@H]1C(=O)N[C@H](C(=O)N[C@@H](CCC(N)=O)C(=O)N[C@H](C(=O)NCC(=O)N[C@@H](CO)C(=O)N[C@@H](CCC(N)=O)C(=O)N[C@H](C(=O)N1CCC[C@H]1C(N)=O)[C@@H](C)O)C(C)C)[C@@H](C)O [Example 163, N-alpha-[(S)-4-Carboxy-4-(19-carboxynonadecanoylamino)butyryl]-Glu-Arg-[Glu1,Glu14,Arg17,Gln21,Gln31,Gln35,Pro37]-pramlintide] ({C20 diacid-γGlu}-ERECNTATCATQRLAEFLRHSSQNFGPILPPTQVGSQTP-NH2; disulfide 4-9 (inferred)) | >45 | >45
CC[C@H](C)[C@H](NC(=O)[C@@H]1CCCN1C(=O)CNC(=O)[C@H](Cc1ccccc1)NC(=O)[C@H](CC(N)=O)NC(=O)[C@H](CC(N)=O)NC(=O)[C@H](CO)NC(=O)[C@H](CO)NC(=O)[C@H](Cc1c[nH]cn1)NC(=O)[C@H](CCCNC(=N)N)NC(=O)[C@H](CC(C)C)NC(=O)[C@H](Cc1ccccc1)NC(=O)[C@H](CCC(=O)O)NC(=O)[C@H](C)NC(=O)[C@H](CC(C)C)NC(=O)[C@H](CCCNC(=N)N)NC(=O)[C@H](CCC(N)=O)NC(=O)[C@@H](NC(=O)[C@H](C)NC(=O)[C@@H]1CSSC[C@H](NC(=O)[C@H](CCCCN)NC(=O)[C@H](Cc2c[nH]cn2)NC(=O)CC[C@H](NC(=O)CCCCCCCCCCCCCCCCCCC(=O)O)C(=O)O)C(=O)N[C@@H](CC(N)=O)C(=O)N[C@@H]([C@@H](C)O)C(=O)N[C@@H](C)C(=O)N[C@@H]([C@@H](C)O)C(=O)N1)[C@@H](C)O)C(=O)N[C@@H](CC(C)C)C(=O)N1CCC[C@H]1C(=O)N1CCC[C@H]1C(=O)N[C@H](C(=O)N[C@@H](CC(N)=O)C(=O)N[C@H](C(=O)NCC(=O)N[C@@H](CO)C(=O)N[C@@H](Cc1c[nH]cn1)C(=O)N[C@H](C(=O)N[C@@H](Cc1ccc(O)cc1)C(N)=O)[C@@H](C)O)C(C)C)[C@@H](C)O [Example 68, N-alpha-[(S)-4-Carboxy-4-(19-carboxynonadecanoylamino)butyryl]-His-[Glu14,Arg17,His35]-pramlintide] ({C20 diacid-γGlu}-HKCNTATCATQRLAEFLRHSSNNFGPILPPTNVGSHTY-NH2; disulfide 3-8 (inferred); C-terminus assumed) | – | >45
